Laboratory results from paper PMC6751662, “Pharmacological and functional similarities of the human neuropeptide Y system in C. elegans challenges phylogenetic views on the FLP/NPR system” (Cell Communication and Signaling : CCS, 2019).
Ends that are not written are not given here.

Columns and labels:
NPFF2R = biological target: T1, NPFF2R (Homo sapiens, UniProt Q9Y5X5); assay: cAMP reporter gene assay, Gi/o, NPFF2R; type: cell-based; details: for cAMP assay (Gi/o), NPFF2R: 4 h, lower = higher Gi/o activity, transfected HEK293, CRE-luciferase, mean of >=3 independent experiments; for Gi (Gs) [x-fold of forskolin], NPFF2R, mean: inhibition of cAMP production induced by 1 µM forskolin (set to 1.00), transiently transfected HEK293 cells, mean of at least three independent experiments
T1 construct: expressed in transfected cells; host or cells: HEK293, transient
T1 sequence (Q9Y5X5 103-522): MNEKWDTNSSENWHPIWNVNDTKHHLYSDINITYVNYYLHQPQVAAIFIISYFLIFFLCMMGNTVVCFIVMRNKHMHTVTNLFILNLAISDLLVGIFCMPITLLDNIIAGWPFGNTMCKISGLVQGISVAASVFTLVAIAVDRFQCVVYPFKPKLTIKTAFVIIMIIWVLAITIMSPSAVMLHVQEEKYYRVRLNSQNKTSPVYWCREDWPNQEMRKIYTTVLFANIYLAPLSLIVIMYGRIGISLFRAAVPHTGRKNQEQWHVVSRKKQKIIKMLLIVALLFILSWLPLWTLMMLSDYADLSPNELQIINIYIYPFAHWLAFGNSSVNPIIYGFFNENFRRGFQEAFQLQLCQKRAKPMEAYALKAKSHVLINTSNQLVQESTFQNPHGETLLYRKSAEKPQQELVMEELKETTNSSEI
Description: Activation of Gs and Gi/o was assessed with a cAMP reporter gene assay. HEK293 cells grown to 70–80% confluency in 6-well plates were transiently co-transfected with vectors encoding the receptor and the cAMP reporter gene plasmid pGL4.29 [luc2P/CRE/Hygro] (Promega; 4 μg total, 1:1 ratio) using Metafectene Pro (3 μl/μg DNA; Biontex) following the manufacturer’s instructions. 16 h post transfection, the cells were seeded into white 384-well plates at a density of 20,000 cells/well. On the next day, the medium was removed and the cells were stimulated with 20 μl of peptide solution (or forskolin as positive control) in serum-free DMEM for 4 h. For measuring Gi/o activity, the peptide solutions additionally contained 1 μM forskolin to elevate cellular cAMP levels. After incubation, the luciferase substrate OneGlo in lysis buffer (Promega) was added and the luminescence was measured in a microplate reader Tecan Spark (Tecan). Data were analyzed with GraphPad Prism 5.03 and are shown as fold of basal or fold of forskolin in case of Gαi/o activity.
(§1) For in vitro activation, data is presented as mean ± SEM of at least three independent experiments conducted in technical triplicate. […] For the C. elegans NPRs, we considered the strongest response elicited by any of the peptides downstream of a particular receptor as the receptor’s maximal signal. This may or may not be the biological maximum that can be reached by the ‘true’ endogenous agonist. For the human receptors, the response to the established endogenous agonist reflected the maximal signal.

[1] = Solubility of crude peptides in RP-HPLC purification solvents; type: physicochemical; details: for solubility of crude peptide: H2O + 0.1% TFA / acetonitrile + 0.08% TFA (RP-HPLC purification conditions); for solubility of crude peptide at basic pH: 10 mM (NH4)2CO3, pH 8.5, used for purification
Description: C-terminally amidated peptides were synthesized in 15 μmol scale by solid-phase peptide synthesis following the Fmoc/tert-butyl strategy (reviewed in [18]) on Rink amide resin using an automated Syro II peptide synthesizer (MultiSynTech). Automated coupling reactions were performed as double couplings using 8 eq Nα-protected amino acid, activated in situ with equimolar amounts of Oxyma and […] in dimethylformamide (DMF) for 30 min. Automated Fmoc deprotection was carried out with 40% (v/v) piperidine in DMF for 3 min and 20% (v/v) piperidine in DMF for 10 min. Reactive side chains of amino acids were protected by tert-butyl (tBu for Tyr, Ser, Asp, Glu, Thr), trityl (Trt for Asn, Gln, His), 2,2,4,6,7-pentamethyldihydrobenzofuran-5-sulfonyl (Pbf for Arg) and tert-butyloxycarbonyl (Boc for Lys). Peptides were cleaved off the resin using trifluoroacetic acid (TFA)/H2O/triisopropylsilane (90/5/5, v/v/v) for 2.5 h at room temperature and precipitated in ice cold diethyl ether. All peptides were purified to > 95% purity by RP-HPLC (Shimadzu) using a Phenomenex Jupiter 10 μm Proteo 90 Å (C12) column. For most peptides, linear gradients of H2O + 0.1% trifluoroacetic acid (TFA) (eluent A) and acetonitrile (ACN) + 0.08% TFA (eluent B) were applied at a flow rate of 10 ml/minute. […] FLP-27, FLP-33, and FLP-34 were solubilized by ultrasonication at 50 °C for 10 min and subsequently purified under standard solvent conditions used pre-heated HPLC systems. […] Peptide identity was verified by matrix-assisted laser desorption/time of flight (MALDI-ToF; Ultraflex III MALDI-ToF/ToF, Bruker Daltonics) mass spectrometry, and peptide purity was evaluated with analytical RP-HPLC.

NPR-11 = biological target: T2, NPR-11 (Caenorhabditis elegans, UniProt Q18179); assay: IP accumulation assay, chimeric GαΔ6qi4myr, NPR-11; type: cell-based, C. elegans; details: 1 h, HBSS + 20 mM LiCl, HEK293 receptor + GαΔ6qi4myr, HTRF IP-One
T2 construct: expressed in transfected cells; host or cells: HEK293, transient
T2 sequence (Q18179 1-402): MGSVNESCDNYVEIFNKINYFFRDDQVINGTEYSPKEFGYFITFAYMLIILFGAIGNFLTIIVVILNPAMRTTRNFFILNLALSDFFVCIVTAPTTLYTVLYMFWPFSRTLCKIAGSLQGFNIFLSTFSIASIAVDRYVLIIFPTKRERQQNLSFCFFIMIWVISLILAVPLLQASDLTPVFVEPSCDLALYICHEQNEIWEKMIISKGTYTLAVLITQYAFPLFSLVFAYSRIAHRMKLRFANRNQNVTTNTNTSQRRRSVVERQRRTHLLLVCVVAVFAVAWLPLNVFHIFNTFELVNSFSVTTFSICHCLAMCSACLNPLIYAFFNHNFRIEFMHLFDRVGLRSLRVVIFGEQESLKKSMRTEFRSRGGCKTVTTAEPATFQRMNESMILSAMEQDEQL
Description: (§2) For measuring IP accumulation, HEK293 cells grown to 70–80% confluency in 6-well plates were transiently co-transfected using Metafectene Pro (2.5 μl/μg DNA; Biontex) with plasmids containing receptor and/or mock (empty pcDNA3.1) (for endogenous Gq-coupling) using 4 μg total DNA in a ratio of 3:1 following the manufacturer’s instructions. For testing Gα16- and GαΔ6qi4myr-coupling, plasmids encoding the corresponding Gα protein were co-transfected instead of mock. Gα16 is naturally promiscuous and stimulates the phospholipase C (PLC) pathway leading to IP production, while the exchange of the C-terminal four amino acids of Gαq for the corresponding residues of Gαi1 in the chimeric GαΔ6qi4myr confers the ability to couple to Gi/o protein-preferring receptors but still stimulate PLC, thus specifically redirecting downstream cellular signaling. 16 h post transfection, the cells were seeded into white 384-well plates at a density of 20,000 cells/well. Media was removed 24 h later and the cells were incubated with the indicated concentration of peptides for 1 h in HBSS + 20 mM LiCl. IP accumulation was measured with the HTRF-based IP-One Gq kit (Cisbio) on a microplate reader (Tecan Spark).
as §1

NPR-4b = biological target: T3, NPR-4b (Caenorhabditis elegans, UniProt A0A078BTK0); assay: IP accumulation assay, chimeric GαΔ6qi4myr, NPR-4b; type: cell-based, C. elegans; details: 1 h, HBSS + 20 mM LiCl, HEK293 receptor + GαΔ6qi4myr, HTRF IP-One
T3 sequence (A0A078BTK0 1-376): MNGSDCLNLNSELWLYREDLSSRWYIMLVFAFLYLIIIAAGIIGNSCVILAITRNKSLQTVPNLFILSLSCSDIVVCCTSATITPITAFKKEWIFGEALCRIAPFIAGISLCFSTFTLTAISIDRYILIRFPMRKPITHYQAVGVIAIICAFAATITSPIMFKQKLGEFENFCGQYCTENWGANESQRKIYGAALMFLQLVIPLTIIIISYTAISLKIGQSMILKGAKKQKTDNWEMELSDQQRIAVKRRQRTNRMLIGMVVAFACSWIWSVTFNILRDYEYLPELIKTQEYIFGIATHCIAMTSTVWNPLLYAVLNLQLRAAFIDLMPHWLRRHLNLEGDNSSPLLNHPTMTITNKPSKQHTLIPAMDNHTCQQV
Description: as §2, §1

[2] = 0.1 µM peptide + 1 µM forskolin (set to 1.00)
[3] = 10 µM peptide + 1 µM forskolin (set to 1.00)
[4] = 0.1 nM peptide (Table S5), mean of >=3 independent experiments
[5] = 0.1 µM peptide (Table S8), mean of >=3 independent experiments
[6] = 10 µM peptide, mean of >=3 independent experiments (Tables S5 and S8)

Row | IP accumulation with GαΔ6qi4myr, NPR-11 (NPR-11; [5]) | IP accumulation with GαΔ6qi4myr, NPR-11 (NPR-11; [6]) | IP accumulation with GαΔ6qi4myr, NPR-4b (NPR-4b; [5]) | IP accumulation with GαΔ6qi4myr, NPR-4b (NPR-4b; [6]) | Substance | solubility of crude peptide [1] | solubility of crude peptide at basic pH [1] | also measured
1 |  |  |  |  | EASAFGDIIGELKGKGLGGRMRF-NH2 [FLP-27, NPY-like C. elegans FLP with C-terminal RxRF/Ya signature] | partly insoluble |  | cAMP assay (Gi/o), NPFF2R (NPFF2R; [2]): 0.66 x-fold of forskolin; cAMP assay (Gi/o), NPFF2R (NPFF2R; [3]): 0.18 x-fold of forskolin
2 |  |  |  |  | GLGPRPLRF-NH2 [FLP-21] | partly insoluble | improved solubility at basic pH | 
3 |  |  |  |  | APLEGFEDMSGFLRTIDGIQKPRF-NH2 [FLP-33, NPY-like C. elegans FLP with C-terminal RxRF/Ya signature] | partly insoluble |  | cAMP assay (Gi/o), NPFF2R (NPFF2R; [2]): 0.82 x-fold of forskolin; cAMP assay (Gi/o), NPFF2R (NPFF2R; [3]): 0.16 x-fold of forskolin
4 |  |  |  |  | RGPSGPLRF-NH2 [FLP-15-2] | partly insoluble | improved solubility at basic pH | 
5 | 1.03 x-fold of basal | 6.49 x-fold of basal | 2.00 x-fold of basal | 5.53 x-fold of basal | APKPKFIRF-NH2 [FLP-5-1, C. elegans FMRFamide-like peptide, C-terminally amidated, synthesized by SPPS] |  |  | IP assay endog. Gαq + GαΔ6qi4myr, NPR-11 (NPR-11; [4]): 1.03 x-fold of basal; IP assay endog. Gαq + GαΔ6qi4myr, NPR-4b (NPR-4b; [4]): 2.00 x-fold of basal
6 |  |  |  |  | GLGPRPLAF-NH2 [[R8A]FLP-21, R8A control peptide of FLP-21, penultimate arginine exchanged for an alanine] |  |  | Gi (Gs) [x-fold of forskolin], NPFF2R, mean (NPFF2R; 0.1 µM peptide): 0.88 x-fold of forskolin; Gi (Gs) [x-fold of forskolin], NPFF2R, mean (NPFF2R; 10 µM peptide): 0.60 x-fold of forskolin
7 | 1.03 x-fold of basal | 2.79 x-fold of basal | 4.71 x-fold of basal | 12.66 x-fold of basal | ASPSFIRF-NH2 [FLP-4-2, C. elegans FMRFamide-like peptide, C-terminally amidated, synthesized by SPPS] |  |  | 
8 |  |  |  |  | RGPSGPLAF-NH2 [[R8A]FLP-15-2] |  |  | Gi (Gs) [x-fold of forskolin], NPFF2R, mean (NPFF2R; 0.1 µM peptide): 0.94 x-fold of forskolin; Gi (Gs) [x-fold of forskolin], NPFF2R, mean (NPFF2R; 10 µM peptide): 0.97 x-fold of forskolin
9 |  |  |  |  | SEVPGVLRF-NH2 [FLP-18-5] | partly insoluble | improved solubility at basic pH | 
10 | 0.92 x-fold of basal | 1.17 x-fold of basal | 4.77 x-fold of basal | 11.46 x-fold of basal | NPENDTPFGTMRF-NH2 [FLP-3-4, C. elegans FMRFamide-like peptide, C-terminally amidated, synthesized by SPPS] | partly insoluble | improved solubility at basic pH | 
11 | 0.92 x-fold of basal | 6.48 x-fold of basal | 2.48 x-fold of basal | 8.55 x-fold of basal | AGSDPNFLRF-NH2 [FLP-1-2, C. elegans FMRFamide-like peptide, C-terminally amidated, synthesized by SPPS] |  |  | 
